For one series, the system named is W2 strain. Also noted: method as in PMID 16190773. Particulars: cited from earlier work.
Another series relates to HaCaT cells. Description: Cytotoxicity assay (MTT) on HaCaT cells. In kind it is cell-based. Particulars: Homo sapiens, 48 h. How it is done: HaCaT cells were cultured in DMEM medium with 10% FBS, GlutaMAX™ and antibiotic-antimycotic. Cells were cultured at 37 °C in a humidified atmosphere containing 5% CO2. To evaluate the cytotoxic activity of tested compounds, the MTT assay was used. Cells (5 × 10^3 cells/well) were plated into a 96-multiwell plate and incubated for 24 h, to grow as monolayers. Subsequently, different doses of compounds dissolved in DMSO were added to each well and mixed. Plates were then incubated for 48 h. The culture media with tested samples were then removed, and cells in each well were treated with 50 μL of complete culture medium with MTT. After 4 h of incubation in a cell culture incubator, MTT solution was replaced with DMSO (50 μL/well) and plates were agitated for 5 min to dissolve the formazan salts. Formazan absorbance was measured at 570 nm, with background measured at 630 nm, using an Asys UVM 340 Microplate Reader (Cambridge, UK). Results were expressed as IC50 values, with respect to the control (not treated cells).

Series [1] has as its system P. falciparum D10 (CQ-sensitive) strain. In words: P. falciparum drug susceptibility assay (pLDH), D10 strain. The class given is cell-based, Plasmodium falciparum. Particulars: for IC50: Plasmodium falciparum, read-out: P. falciparum IC50 D10; for SI D10: SI = IC50 HaCaT/IC50 P. falciparum strain. The protocol:
Plasmodium falciparum cultures were carried out according to Trager and Jensen, with slight modifications. […] Drugs were placed in 96-well flat-bottomed microplates starting from the concentration of 20 µg/mL and 8 serial two-fold dilutions were made. […] Parasite growth was determined spectrophotometrically (OD650) by measuring the activity of the parasite lactate dehydrogenase (pLDH), according to a modified version of the method of Makler in control and drug-treated cultures.

For series [2], the system named is P. falciparum W2 (CQ-resistant) strain. Description: P. falciparum drug susceptibility assay (pLDH), W2 strain. In kind it is cell-based, Plasmodium falciparum. Particulars: for IC50: Plasmodium falciparum, read-out: P. falciparum IC50 W2; for RI: RI = IC50 CQ resistant P. falciparum strain/IC50 CQ sensitive P. falciparum strain; for SI W2: SI = IC50 HaCaT/IC50 P. falciparum strain. The protocol: Plasmodium falciparum cultures were carried out according to Trager and Jensen, with slight modifications. The CQ-susceptible strain D10 and the CQ-resistant strain W2 were maintained at 5% hematocrit (human type A-positive red blood cells) in RPMI 1640 (EuroClone, Milan, Italy) medium with the addition of 1% AlbuMax (Invitrogen, Milan, Italy), 0.01% hypoxanthine, 20 mM Hepes, and 2 mM glutamine. All the cultures were maintained at 37 °C in a standard gas mixture consisting of 1% O2, 5% CO2, and 94% N2. Compounds were dissolved in DMSO and then diluted with medium to achieve the required concentrations (final DMSO concentration < 1%, which is non-toxic to the parasite). Drugs were placed in 96-well flat-bottomed microplates starting from the concentration of 20 µg/mL and 8 serial two-fold dilutions were made. Asynchronous cultures with parasitaemia of 1–1.5% and 1% final hematocrit were aliquoted into the plates and incubated for 72 h at 37 °C. Parasite growth was determined spectrophotometrically (OD650) by measuring the activity of the parasite lactate dehydrogenase (pLDH), according to a modified version of the method of Makler in control and drug-treated cultures. The antimalarial activity is expressed as 50% inhibitory concentrations (IC50); […]

For series [3], the system named is Plasmodium falciparum 3D7. More on the design: method as in PMID 25797165. Particulars: read-out: IC50 against Plasmodium falciparum 3D7; cited from earlier work.
The subject of series [4] is chloroquine-resistant Dd2 strain. More on the design: method as in PMID 25797165. Particulars: compared with 3D7; cited from earlier work.
Series [5] concerns FcM29-Cameroon, a high chloroquine-resistant strain of P. falciparum. Also noted: method as in PMID 21612900. Particulars: cited from earlier work.
A further series can be described thus: Hemolysis assay. Particulars: human erythrocyte suspension, fresh human erythrocytes. In kind it is cell-based. The protocol: The study protocol was approved by the Bioethics Commission at the Lower Silesian Medical Chamber (1/PNHAB/2018). Hemolytic activity was estimated by the measurement of hemoglobin release from human erythrocyte suspensions after incubation with (5), (6), (7) and (8), as previously described. Compouds dissolved in DMSO were added in a volume corresponding to a final concentration of 20 µg/mL in the sample (DMSO was added in an identical volume). Negative and positive controls were also determined. Hemolysis (H) was calculated according to the following formula:H (%) = [(Asample − Anegative control)/(Apositive control − Anegative control)] × 100(1) where Asample, Anegative control, and Apositive control represent the absorbances of the sample, and negative (erythrocytes in PBS buffer) and positive (erythrocytes in distilled water) controls, respectively.

Another series in a line: Solubility in water. Particulars: statement in words. The class given is physicochemical.
Setting [6] is: D10 (CQ-sensitive), 72 h, pLDH, IC50 expressed in µM.
Where [7] appears, read: W2 (CQ-resistant), 72 h, pLDH, IC50 expressed in µM.

≈ marks a conversion by molar mass, not a printed value. Where “and” joins values, the source holds several entries; their conditions need not be identical. Identical values can stand only once. Like-named read-outs stand apart in the source and are kept apart here.

As to `CC(C)C1C(=O)C(=O)N/C1=N/C(=N)Nc1ccc(Cl)c(Cl)c1` (stereo not shown) [WR182393], the “IC50 for W2” value in the series with W2 strain is reported as 2664.69 ng/mL.
Turning to `O=C1NC2(CCc3ccccc32)C(=O)N1CCCCCN1CCN(c2nc3ccccc3[nH]2)CC1` (racemic) [(6), (R,S)-1-(5-(4-(1H-Benzo[d]imidazol-2-yl)piperazin-1-yl)pentyl)-2′,3′-dihydrospiro[imidazolidine-4,1′-indene]-2,5-dione], the half-inhibitory concentration (IC50) – broadly, the midpoint of a concentration-inhibition curve – was determined as 27.4 µg/mL in the series with HaCaT cells; 58 ± 1.48 µM with HaCaT cells (IC50 expressed in µM); 17.5 ± 1.55 µM in series [1] (setting [6]); 8.27 ± 0.737 µg/mL in [1] (D10 (CQ-sensitive), 72 h, pLDH); 10.1 ± 0.2 µM in series [2] (setting [7]); 4.78 ± 0.0974 µg/mL in series [2] (W2 (CQ-resistant), 72 h, pLDH). Moreover, the “SI D10” value in series [1] amounted to 3.31. The molecule further had an RI in series [2] of 0.58. Besides, the “SI W2” value in series [2] was 5.73.
Take `CCN1C(=O)N(CCC(C)C)C2(CCN(Cc3cc(Cl)ccc3O)CC2)C1=O` [CWHM-123, 8-(5-chloro-2-hydroxybenzyl)-3-ethyl-1-isopentyl-1,3,8-triazaspiro[4.5]decane-2,4-dione]: the IC50 in [3] is 310 nM. Besides, the “potency on the chloroquine-resistant Dd2 strain” value in [4] was “equivalent potency”.
With `CN1C(=N)N(C)/C(=C/c2c[nH]c3ccccc23)C1=O` [Aplysinopsin], the “IC50 against FcM29-Cameroon” value in [5] is 430 ng/mL (≈ 1.69 µM). The concentration for half-maximal inhibition (IC50) in series [5] (read-out: IC50 against FcM29-Cameroon) was 1690 nM.
`O=C1NC2(CCCc3ccccc32)C(=O)N1CCCCCN1CCN(C2Cc3ccccc3C2)CC1` (racemic) [(7), (R,S)-1-(5-(4-(2,3-Dihydro-1H-inden-2-yl)piperazin-1-yl)pentyl)-3′,4′-dihydro-2′H-spiro[imidazolidine-4,1′-naphthalene]-2,5-dione]: the IC50 in the series on HaCaT cells is 30.5 µg/mL; with HaCaT cells (IC50 expressed in µM) it was 62.8 ± 2.12 µM; in series [1] (setting [6]), 19.9 ± 0.29 µM; in [1] (D10 (CQ-sensitive), 72 h, pLDH), 9.66 ± 0.141 µg/mL; in series [2] (setting [7]), 8.93 ± 1.35 µM; in series [2] (W2 (CQ-resistant), 72 h, pLDH), 4.35 ± 0.659 µg/mL. Also, the “SI D10” value in [1] was found to be 3.16. The molecule further yielded an RI in series [2] of 0.45. In addition, in [2], the “SI W2” value came to 7.02.
`O=C1NC2(CCCc3ccccc32)C(=O)N1CCCCCN1CCN(c2nc3ccccc3[nH]2)CC1` (racemic) [Compound (5), (R,S)-1-(5-(4-(1H-Benzo[d]imidazol-2-yl)piperazin-1-yl)pentyl)-3′,4′-dihydro-2′H-spiro[imidazolidine-4,1′-naphthalene]-2,5-dione] registered a hemolysis at 30 min, 20 µg/mL in the series “Hemolysis assay” of 5.6%. Besides, the IC50 came to 20.2 µg/mL with HaCaT cells; 41.6 ± 2.43 µM in the series on HaCaT cells (IC50 expressed in µM); 12.75 ± 0.02 µM in series [1] (setting [6]); 6.2 ± 0.892 µg/mL in series [1] (D10 (CQ-sensitive), 72 h, pLDH); 4.98 ± 0.52 µM in [2] (setting [7]); 2.42 ± 0.255 µg/mL in series [2] (W2 (CQ-resistant), 72 h, pLDH). Further, the “SI D10” value in [1] is recorded as 3.26. Besides, in the series “Solubility in water”, the solubility in water entry is given as “low solubility in water”. For the same molecule, the RI in series [2] is on record as 0.39. Further, the “SI W2” value in series [2] is given as 8.34.
With `CCN(CC)CCCC(C)Nc1ccnc2cc(Cl)ccc12` (stereo not shown) [CQ, Chloroquine, reference compound], the IC50 in [1] (D10, 72 h) was 0.00764 µg/mL and 10 nM; in [2] (W2, 72 h), 0.103 µg/mL and 200 nM.
On to `CCN1C(=O)N(CCC(C)C)C2(CCN(Cc3cc(Cl)c(Cl)cc3O)CC2)C1=O` [CWHM-505], for which the IC50 in series [3] was 99 nM.
Consider `O=C1NC2(CCc3ccccc32)C(=O)N1CCCCCN1CCN(C2Cc3ccccc3C2)CC1` (racemic) [(8), (R,S)-1-(5-(4-(2,3-Dihydro-1H-inden-2-yl)piperazin-1-yl)pentyl)-2′,3′-dihydrospiro[imidazolidine-4,1′-indene]-2,5-dione], for which the IC50 in the series on HaCaT cells was 22.7 µg/mL; with HaCaT cells (IC50 expressed in µM), 48.1 ± 2.49 µM; in [1] (D10 (CQ-sensitive), 72 h, pLDH) it was above 10 µg/mL; in series [2] (setting [7]), 12 ± 4.12 µM; in series [2] (W2 (CQ-resistant), 72 h, pLDH) it was 5.65 ± 1.95 µg/mL. Besides, the “SI W2” value in [2] was found to be 4.02.

The values above are taken from article PMC7823712, “Synthesis and Antiplasmodial Activity of Novel Bioinspired Imidazolidinedione Derivatives” (Biomolecules, 2020).
